According to BindingDB's records for patent US12552793 (Kangbaida (Sichuan) Biotechnology Co., 2026):

Molecular target: DNA-dependent protein kinase catalytic subunit (Homo sapiens, UniProt P78527)
Assay: Inhibition of DNA-PK Kinase
Description: IC50 was calculated using GraphPad Prism 8.

Sequence of DNA-dependent protein kinase catalytic subunit (P78527 whole entry): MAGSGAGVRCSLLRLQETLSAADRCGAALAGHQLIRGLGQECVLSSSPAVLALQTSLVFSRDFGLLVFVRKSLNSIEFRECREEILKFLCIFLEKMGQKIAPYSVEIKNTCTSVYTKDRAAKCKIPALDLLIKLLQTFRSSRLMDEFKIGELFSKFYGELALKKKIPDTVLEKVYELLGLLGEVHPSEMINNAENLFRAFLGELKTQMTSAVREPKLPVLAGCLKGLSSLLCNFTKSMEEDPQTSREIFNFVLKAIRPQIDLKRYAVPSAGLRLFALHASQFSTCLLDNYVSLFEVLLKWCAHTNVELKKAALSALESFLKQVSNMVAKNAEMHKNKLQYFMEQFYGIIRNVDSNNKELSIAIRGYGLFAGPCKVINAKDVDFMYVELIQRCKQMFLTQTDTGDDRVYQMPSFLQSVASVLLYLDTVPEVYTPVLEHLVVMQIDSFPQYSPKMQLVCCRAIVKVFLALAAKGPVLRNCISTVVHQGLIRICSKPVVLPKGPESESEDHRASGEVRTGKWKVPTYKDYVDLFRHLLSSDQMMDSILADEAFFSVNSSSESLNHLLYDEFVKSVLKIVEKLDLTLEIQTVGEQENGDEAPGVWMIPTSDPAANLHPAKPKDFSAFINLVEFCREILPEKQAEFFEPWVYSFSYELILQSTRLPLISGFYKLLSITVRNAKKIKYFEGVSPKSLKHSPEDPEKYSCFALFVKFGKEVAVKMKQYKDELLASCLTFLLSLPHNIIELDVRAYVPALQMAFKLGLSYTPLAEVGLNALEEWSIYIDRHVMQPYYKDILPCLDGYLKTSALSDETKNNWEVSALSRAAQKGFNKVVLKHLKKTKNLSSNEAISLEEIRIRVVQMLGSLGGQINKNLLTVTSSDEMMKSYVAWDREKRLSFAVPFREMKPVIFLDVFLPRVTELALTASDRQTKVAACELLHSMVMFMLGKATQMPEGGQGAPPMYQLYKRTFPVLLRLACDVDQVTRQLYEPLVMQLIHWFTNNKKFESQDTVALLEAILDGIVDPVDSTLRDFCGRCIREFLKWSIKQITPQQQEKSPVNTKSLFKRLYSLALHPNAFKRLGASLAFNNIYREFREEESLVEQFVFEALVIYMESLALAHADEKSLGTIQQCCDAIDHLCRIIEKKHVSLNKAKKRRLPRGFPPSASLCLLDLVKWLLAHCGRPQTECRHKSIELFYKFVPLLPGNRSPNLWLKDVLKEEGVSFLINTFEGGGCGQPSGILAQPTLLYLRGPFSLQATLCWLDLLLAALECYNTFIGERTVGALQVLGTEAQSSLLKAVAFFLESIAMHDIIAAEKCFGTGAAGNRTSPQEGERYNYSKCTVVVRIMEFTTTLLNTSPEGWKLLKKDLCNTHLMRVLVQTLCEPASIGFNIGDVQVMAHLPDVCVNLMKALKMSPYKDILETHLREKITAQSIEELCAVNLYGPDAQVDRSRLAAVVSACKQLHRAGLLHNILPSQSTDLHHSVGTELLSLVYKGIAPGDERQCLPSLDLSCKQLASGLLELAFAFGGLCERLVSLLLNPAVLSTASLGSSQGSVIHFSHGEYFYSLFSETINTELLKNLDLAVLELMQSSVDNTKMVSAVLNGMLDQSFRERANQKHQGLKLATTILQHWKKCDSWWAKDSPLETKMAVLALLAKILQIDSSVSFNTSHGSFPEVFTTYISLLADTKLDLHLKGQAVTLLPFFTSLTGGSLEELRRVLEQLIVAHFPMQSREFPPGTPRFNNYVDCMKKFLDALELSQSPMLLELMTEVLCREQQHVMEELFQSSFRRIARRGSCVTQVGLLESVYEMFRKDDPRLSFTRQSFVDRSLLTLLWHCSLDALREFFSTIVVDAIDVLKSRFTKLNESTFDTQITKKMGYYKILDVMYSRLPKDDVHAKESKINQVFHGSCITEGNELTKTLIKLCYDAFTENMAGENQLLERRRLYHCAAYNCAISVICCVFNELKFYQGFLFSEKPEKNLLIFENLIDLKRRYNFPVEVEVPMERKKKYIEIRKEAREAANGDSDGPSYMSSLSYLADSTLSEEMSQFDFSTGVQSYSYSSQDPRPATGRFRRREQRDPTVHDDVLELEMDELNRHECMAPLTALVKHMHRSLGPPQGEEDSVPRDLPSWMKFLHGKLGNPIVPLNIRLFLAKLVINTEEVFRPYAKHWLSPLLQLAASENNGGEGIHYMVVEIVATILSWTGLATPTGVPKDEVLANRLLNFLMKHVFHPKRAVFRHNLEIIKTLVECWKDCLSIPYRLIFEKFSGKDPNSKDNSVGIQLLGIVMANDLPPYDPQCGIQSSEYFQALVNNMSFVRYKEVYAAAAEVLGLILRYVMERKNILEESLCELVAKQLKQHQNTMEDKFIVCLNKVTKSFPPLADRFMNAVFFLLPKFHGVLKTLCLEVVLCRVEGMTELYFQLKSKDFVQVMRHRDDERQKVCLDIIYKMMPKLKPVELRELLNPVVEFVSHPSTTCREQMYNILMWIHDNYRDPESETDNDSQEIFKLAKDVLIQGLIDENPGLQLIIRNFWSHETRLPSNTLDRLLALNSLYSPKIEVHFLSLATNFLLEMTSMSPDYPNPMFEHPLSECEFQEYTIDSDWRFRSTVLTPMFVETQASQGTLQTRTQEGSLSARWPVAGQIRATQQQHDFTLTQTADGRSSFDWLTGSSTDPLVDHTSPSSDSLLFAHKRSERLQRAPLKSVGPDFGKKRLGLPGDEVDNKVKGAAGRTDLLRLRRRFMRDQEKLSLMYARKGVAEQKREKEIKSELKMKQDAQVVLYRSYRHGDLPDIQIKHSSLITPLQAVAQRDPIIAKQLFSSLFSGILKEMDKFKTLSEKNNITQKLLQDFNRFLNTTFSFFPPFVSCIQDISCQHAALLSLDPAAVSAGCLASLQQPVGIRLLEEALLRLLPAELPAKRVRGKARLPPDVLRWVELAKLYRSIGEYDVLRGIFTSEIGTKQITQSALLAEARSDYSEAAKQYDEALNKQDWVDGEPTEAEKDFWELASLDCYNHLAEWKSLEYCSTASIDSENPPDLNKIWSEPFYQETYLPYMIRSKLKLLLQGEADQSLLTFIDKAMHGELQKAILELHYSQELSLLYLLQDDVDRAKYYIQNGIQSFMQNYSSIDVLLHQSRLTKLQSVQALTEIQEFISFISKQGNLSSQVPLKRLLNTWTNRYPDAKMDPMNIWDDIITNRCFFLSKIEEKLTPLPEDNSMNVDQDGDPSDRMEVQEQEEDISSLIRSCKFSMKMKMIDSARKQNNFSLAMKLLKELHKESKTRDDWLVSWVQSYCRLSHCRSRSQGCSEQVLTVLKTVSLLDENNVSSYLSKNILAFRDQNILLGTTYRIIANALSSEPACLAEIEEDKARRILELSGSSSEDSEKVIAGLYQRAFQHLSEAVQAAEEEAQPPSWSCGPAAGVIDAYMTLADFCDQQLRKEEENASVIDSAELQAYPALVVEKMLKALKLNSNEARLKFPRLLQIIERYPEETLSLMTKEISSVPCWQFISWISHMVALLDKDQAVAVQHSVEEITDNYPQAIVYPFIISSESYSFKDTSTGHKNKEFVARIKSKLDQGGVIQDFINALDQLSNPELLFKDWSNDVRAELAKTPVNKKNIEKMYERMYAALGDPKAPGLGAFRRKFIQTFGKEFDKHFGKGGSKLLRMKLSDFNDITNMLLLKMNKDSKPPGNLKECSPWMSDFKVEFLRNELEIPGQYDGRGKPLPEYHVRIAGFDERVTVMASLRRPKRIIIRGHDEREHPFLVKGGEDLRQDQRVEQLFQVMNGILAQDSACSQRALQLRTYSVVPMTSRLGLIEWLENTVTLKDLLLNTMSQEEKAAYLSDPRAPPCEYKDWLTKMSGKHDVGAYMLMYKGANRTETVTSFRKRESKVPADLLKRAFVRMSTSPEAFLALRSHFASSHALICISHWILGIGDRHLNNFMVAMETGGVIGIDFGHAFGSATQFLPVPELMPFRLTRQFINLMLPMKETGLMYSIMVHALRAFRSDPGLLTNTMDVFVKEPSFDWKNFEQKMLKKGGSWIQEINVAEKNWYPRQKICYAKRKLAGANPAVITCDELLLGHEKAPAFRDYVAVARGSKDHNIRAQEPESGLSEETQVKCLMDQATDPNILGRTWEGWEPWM

Row | Compound | IC50 [pM]
1 | [2H]C1(O)C2CC3CC1CC(n1c(=O)n(C)c4cnc(Nc5cc(F)c(C(N)=O)cc5C)nc41)(C3)C2 (centres undefined) [US12552793, Compound 23-1] | 2840
2 | Cc1cc2ncnn2cc1Nc1ncc2c(n1)n(C1C3CC4CC1CC(O)(C4)C3)c(=O)n2C (centres undefined) [US12552793, Compound 16-2] | 2490
3 | [2H]C1(O)C2CC3CC1CC(n1c(=O)n(C)c4cnc(Nc5cn6ncnc6cc5C)nc41)(C3)C2 (centres undefined) [US12552793, Compound 20-2] | 1100
4 | Cc1cc(C(N)=O)c(F)cc1Nc1ncc2c(n1)n(C13CC4CC(C1)C(O)C(C4)C3)c(=O)n2C (centres undefined) [US12552793, Compound 17-2] | 2200

The next compounds have a lower IC50 than those just listed; values first:

Row | IC50 [pM] | Compound
5 | 850 | [2H]C1(O)C2CC3CC1CC(n1c(=O)n(C)c4cnc(Nc5cc(F)c(C(N)=O)cc5C)nc41)(C3)C2 (centres undefined) [US12552793, Compound 23-2]
6 | 520 | Cc1cc2ncnn2cc1Nc1ncc2c(n1)n(C1C3CC4CC1CC(O)(C4)C3)c(=O)n2C (centres undefined) [US12552793, Compound 16-1]
7 | 30 | [2H]C1(O)C2CC3CC1CC(n1c(=O)n(C)c4cnc(Nc5cn6ncnc6cc5C)nc41)(C3)C2 (centres undefined) [US12552793, Compound 20-1]
8 | 10 | COC1(OC)C2CC3CC1CC(n1c(=O)n(C)c4cnc(Nc5cc(F)c(C(N)=O)cc5C)nc41)(C3)C2 [US12552793, Compound 26]
9 | 10 | Cc1cc(C(N)=O)c(F)cc1Nc1ncc2c(n1)n(C13CC4CC(C1)C(O)C(C4)C3)c(=O)n2C (centres undefined) [US12552793, Compound 17-1]
